{"source": "patent US8906929B2", "about": "“Inhibitors of human immunodeficiency virus replication” (priority 2012, dated 2014)"}
{"system": "recombinant NL-Rluc virus", "experiment": "Inhibition of HIV replication (NL-RLuc virus in MT-2 cells, luciferase readout)", "format": "cell-based", "conditions": "5 days of incubation, 10% FBS", "units": {"EC50": "nM"}}
{"compound": "Cc1nc2cc3nn2c(c1[C@H](OC(C)(C)C)C(=O)O)-c1ccc2c(c1)C(CCCCCc1ccccc1-c1cccc-3c1)CCO2", "note": "(single isomer, unassigned) [Example 8]", "EC50": 51}
{"compound": "Cc1ccc2c(c1)-c1cccc(c1)-c1cc3nc(C)c([C@H](OC(C)(C)C)C(=O)O)c(n3n1)N1CCC(C)(CC1)OCCCC(C)C(C)O2", "note": "(single isomer, unassigned) [Example 93]", "EC50": 95}
{"system": "recombinant NL-Rluc virus", "experiment": "Inhibition of HIV replication (NL-RLuc virus in MT-2 cells, luciferase readout)", "format": "cell-based", "conditions": "Human immunodeficiency virus 1, MT2, 120 h, 5 days of incubation, 10% FBS", "units": {"EC50": "nM"}}
{"compound": "Cc1nc2cc3nn2c(c1[C@H](OC(C)(C)C)C(=O)O)-c1ccc2c(c1)[C@H](CC=CCOc1ccccc1-c1cccc-3c1)CCO2", "note": "(single isomer, unassigned) [Example 15]", "EC50": 4}
{"compound": "Cc1ccc2c(c1)O[C@@H](C)CC=CCOC1(C)CCN(CC1)c1c([C@H](OC(C)(C)C)C(=O)O)c(C)nc3cc(nn13)-c1cccc-2c1", "note": "[Example 105, (2S)-2-(tert-Butoxy)-2-[(22S)-4,18,22,28-tetramethyl-21,27-dioxa-1,5,7,8-tetraazahexacyclo[26.2.2.1^6,^9.1^10,^14.0^2,^7.0^15,^20]tetratriaconta-2,4,6(34),8,10(33), 11, 13, 15(20),16,18,24-undecaen-3-yl]acetic acid]", "EC50": 28}
{"compound": "Cc1nc2cc3nn2c(c1[C@H](OC(C)(C)C)C(=O)O)N1CCC(C)(CC1)OCCCC[C@H](C)Oc1cccc(Cl)c1-c1cccc-3c1", "note": "[Example 85, (2S)-2-(tert-Butoxy)-2-[(22S)-16-chloro-4,22,28-trimethyl-21,27-dioxa-1,5,7,8-tetraazahexacyclo[26.2.2.1^6,^9.1^10,^14.0^2,^7.0^15,^20]tetratriaconta-2,4, 6(34), 8, 10(33), 11, 13, 15 (20),16,18-decaen-3-yl]acetic acid]", "EC50": 21}
{"compound": "Cc1nc2cc3nn2c(c1[C@H](OC(C)(C)C)C(=O)O)N1CCC(C)(CC1)OCCCC[C@H](C)Oc1cccc(F)c1-c1cc-3ccc1F", "note": "[Example 99]", "EC50": 20}
{"compound": "Cc1ccc2c(c1)O[C@@H](C)CCCCOC1(C)CCN(CC1)c1c([C@H](OC(C)(C)C)C(=O)O)c(C)nc3cc(nn13)-c1cccc-2c1", "note": "[Example 74, (2S)-2-(tert-Butoxy)-2-[(22S)-4,18,22,28-tetramethyl-21,27-dioxa-1,5,7,8-tetraazahexacyclo[26.2.2.1^6,^9.1^10,^14.0^2,^7.0^15,^20]tetratriaconta-2,4,6(34),8,10(33),11,13,15(20),16,18-decaen-3-yl]acetic acid]", "EC50": 36}
{"compound": "Cc1ccc2c(c1)-c1cccc(c1)-c1cc3nc(C)c([C@H](OC(C)(C)C)C(=O)O)c(n3n1)N1CCC(C)(CC1)OCCC[C@@H](C)O2", "note": "[Example 60, (2S)-2-(tert-Butoxy)-2-[(22R)-4,17,22,2,7-tetramethyl-21,26-dioxa-1,5,7,8-tetraazahexacyclo[25.2.2.1^6,^9.1^10,^14.0^2,^7.0^15,^20]tritriaconta-2,4,6(33),8,10(32),11,13,15(20),16,18-decaen-3-yl]acetic acid]", "EC50": 84}
{"compound": "Cc1nc2cc3nn2c(c1[C@H](OC(C)(C)C)C(=O)O)N1CCC(C)(CC1)OCCC[C@H](C)Oc1ccccc1-c1cccc-3c1", "note": "[Example 24, (2S)-2-(tert-Butoxy)-2-[(22S)-4,22,27-trimethyl-21,26-dioxa-1,5,7,8-tetraazahexacyclo[25.2.2.1^6,^9.1^10,^14.0^2,^7.0^15,^20]tritriaconta-2,4,6(33),8,10(32),11,13,15(20),16,18-decaen-3-yl]acetic acid]", "EC50": 8}
{"compound": "Cc1nc2cc3nn2c(c1[C@H](OC(C)(C)C)C(=O)O)N1CCC(C)(/C=C/C=C/COc2ccc(Cl)cc2-c2cccc-3c2)CC1", "note": "[Example 43, (2S)-2-(tert-Butoxy)-2-[(23E,25E)-17-chloro-4,27-dimethyl-21-oxa-1,5,7,8-tetraazahexacyclo[25.2.2.1^6,^9.1^10,^14.0^2,^7.0^15,^20]tritriaconta-2,4,6(33),8,10(32), 11, 13, 15(20),16,18,23,25-dodecaen-3-yl]acetic acid]", "EC50": 134}
{"compound": "Cc1nc2cc3nn2c(c1[C@H](OC(C)(C)C)C(=O)O)N1CCC(C)(CC/C=C\\CCc2ccncc2-c2cccc-3c2)CC1", "note": "[Example 51, (2S)-2-(tert-Butoxy)-2-[(23Z)-4,27-dimethyl-1,5,7,8,17-pentaazahexacyclo[25.2.2.1^6,^9.1^10,^14.0^2,^7.0^15,^20]tritriaconta-2,4,6(33),8,10(32),11,13,15(20),16,18,23-undecaen-3-yl]acetic acid]", "EC50": 6}
{"compound": "Cc1cc2c(cc1C)-c1cccc(c1)-c1cc3nc(C)c([C@H](OC(C)(C)C)C(=O)O)c(n3n1)N1CCC(C)(CC1)OCCCC[C@H](C)O2", "note": "[Example 76, (2S)-2-(tert-Butoxy)-2-[(22S)-4,17,18,22,28-pentamethyl-21,27-dioxa-1,5,7,8-tetraazahexacyclo[26.2.2.1^6,^9.1^10,^14.0^2,^7.0^15,^20]tetratriaconta-2,4,6(34),8,10(33),11,13,15(20),16,18-decaen-3-yl]acetic acid]", "EC50": 29}
{"compound": "Cc1ccc2c(c1F)-c1cccc(c1)-c1cc3nc(C)c([C@H](OC(C)(C)C)C(=O)O)c(n3n1)N1CCC(C)(CC1)OCCCC[C@H](C)O2", "note": "[Example 70, (2S)-2-(tert-Butoxy)-2-[(22S)-16-fluoro-4,17,22,28-tetramethyl-21,27-dioxa-1,5,7,8-tetraazahexacyclo[26.2.2.1^6,^9.1^10,^14.0^2,^7.0^15,^20]tetratriaconta-2,4, 6(34), 8, 10(33), 11, 13, 15(20),16,18-decaen-3-yl]acetic acid]", "EC50": 19}
{"compound": "Cc1nc2cc3nn2c(c1[C@H](OC(C)(C)C)C(=O)O)N1CCC(C)(CC1)OCCCC[C@@H](C)Oc1ccccc1-c1cccc-3c1", "note": "[Example 28, (2S)-2-(tert-Butoxy)-2-[(22R)-4,22,28-trimethyl-21,27-dioxa-1,5,7,8-tetraazahexacyclo[26.2.2.1^6,^9.1^10,^14.0^2,^7.0^15,^20]tetratriaconta-2,4,6(34),8,10(33), 11, 13, 15 (20),16,18-decaen-3-yl]acetic acid]", "EC50": 40}
{"compound": "CCC(C)(C)O[C@H](C(=O)O)c1c(C)nc2cc3nn2c1N1CCC(C)(CC1)OCCCC[C@H](C)Oc1ccc(C)cc1-c1cccc-3c1", "note": "[Example 96, (2S)-2-[(2-Methylbutan-2-yl)oxy]-2-[(22S)-4,17,22,28-tetramethyl-21,27-dioxa-1,5,7,8-tetraazahexacyclo[26.2.2.1^6,^9.1^10,^14.0^2,^7.0^15,^20]tetratriaconta-2,4,6(34),8,10(33), 11, 13, 15 (20),16,18-decaen-3-yl]acetic acid]", "EC50": 36}
{"compound": "Cc1nc2cc3nn2c(c1[C@H](OC(C)(C)C)C(=O)O)N1CCC(C)(CC1)OCCCCOc1ccccc1-c1cccc-3c1", "note": "[Example 21, (2S)-2-(tert-Butoxy)-2-{4,27-dimethyl-21,26-dioxa-1,5,7,8-tetraazahexacyclo[25.2.2.1^6,^9.1^10,^14.0^2,^7.0^15,^20]-tritriaconta-2,4, 6(33), 8, 10(32), 11, 13, 15(20),16,18-decaen-3-yl}acetic acid]", "EC50": 7}
{"compound": "Cc1nc2cc3nn2c(c1[C@H](OC(C)(C)C)C(=O)O)N1CCC(C)(CC1)OCC=CC[C@H](C)Oc1ccc(C(N)=O)cc1-c1cccc-3c1", "note": "[Example 72, (2S)-2-(tert-Butoxy)-2-[(22S)-17-carbamoyl-4,22,27-trimethyl-21,26-dioxa-1,5,7,8-tetraazahexacyclo[25.2.2.1^6,^9.1^10,^14.0^2,^7.0^15,^20]tritriaconta-2,4, 6(33), 8, 10(32), 11, 13, 15(20),16,18,23-undecaen-3-yl]acetic acid]", "EC50": 15}
{"compound": "Cc1nc2cc3nn2c(c1[C@H](OC(C)(C)C)C(=O)O)N1CCC(C)(CC1)OC/C=C\\COc1cc(F)ccc1-c1cccc-3c1", "note": "[Example 47, (2S)-2-(tert-Butoxy)-2-[(23Z)-18-fluoro-4,2,7-dimethyl-21,26-dioxa-1,5,7,8-tetraazahexacyclo[25.2.2.1^6,^9.1^10,^14.0^2,^7.0^15,^20]tritriaconta-2,4,6(33),8,10(32),11,13,15(20),16,18,23-undecaen-3-yl]acetic acid]", "EC50": 14}
{"compound": "Cc1nc2cc3nn2c(c1[C@H](OC(C)(C)C)C(=O)O)N1CCC(C)(CC1)OCC=CCOc1ccc(Cl)cc1-c1cccc-3c1", "note": "[Example 31, (2S)-2-(tert-Butoxy)-2-[17-chloro-4,2,7-dimethyl-21,26-dioxa-1,5,7,8-tetraazahexacyclo[25.2.2.1^6,^9.1^10,^14.0^2,^7.0^15,^20]tritriaconta-2,4,6(33),8,10(32),11,13,15(20),16,18,23-undecaen-3-yl]acetic acid]", "EC50": 6}
{"compound": "Cc1cccc2c1-c1cccc(c1)-c1cc3nc(C)c([C@H](OC(C)(C)C)C(=O)O)c(n3n1)N1CCC(C)(CC1)OCCCC[C@H](C)O2", "note": "[Example 77, (2S)-2-(tert-Butoxy)-2-[(22S)-4,16,22,28-tetramethyl-21,27-dioxa-1,5,7,8-tetraazahexacyclo[26.2.2.1^6,^9.1^10,^14.0^2,^7.0^15,^20]tetratriaconta-2,4,6(34),8,10(33), 11, 13, 15(20),16,18-decaen-3-yl]acetic acid]", "EC50": 21}
{"compound": "Cc1nc2cc3nn2c(c1[C@H](OC(C)(C)C)C(=O)O)N1CCC(C)(CC1)OCCCCOc1ccc(Cl)cc1-c1cccc-3c1", "note": "[Example 32, (2S)-2-(tert-Butoxy)-2-{17-chloro-4,27-dimethyl-21,26-dioxa-1,5,7,8-tetraazahexacyclo[25.2.2.1^6,^9.1^10,^14.0^2,^7.0^15,^20]tritriaconta-2,4,6(33),8,10(32),11,13,15(20),16,18-decaen-3-yl}acetic acid]", "EC50": 9}
{"compound": "Cc1ccc2c(c1)-c1cccc(c1)-c1cc3nc(C)c([C@H](OC4(C)CCC4)C(=O)O)c(n3n1)N1CCC(C)(CC1)OCCCC[C@H](C)O2", "note": "[Example 97, (2S)-2-(1-Methylcyclobutoxy)-2-[(22S)-4,17,22,28-tetramethyl-21,27-dioxa-1,5,7,8-tetraazahexacyclo[26.2.2.1^6,^9.1^10,^14.0^2,^7.0^15,^20]tetratriaconta-2,4, 6(34), 8, 10(33), 11, 13, 15 (20),16,18-decaen-3-yl]acetic acid]", "EC50": 41}
{"compound": "Cc1ccc2c(c1)-c1cccc(c1)-c1cc3nc(C)c([C@H](OC(C)(C)C)C(=O)O)c(n3n1)N1CCC(C)(CC1)OCC=C[C@@H](C)O2", "note": "[Example 58, (2S)-2-(tert-Butoxy)-2-[(22R)-4,17,22,2,7-tetramethyl-21,26-dioxa-1,5,7,8-tetraazahexacyclo[25.2.2.1^6,^9.1^10,^14.0^2,^7.0^15,^20]tritriaconta-2,4,6(33),8,10(32),11,13,15(20),16,18,23-undecaen-3-yl]acetic acid]", "EC50": 74}
